Experimental findings from article PMC6270994, “The Hydractinia echinata Test-System. III: Structure-Toxicity Relationship Study of Some Azo-, Azo-Anilide, and Diazonium Salt Derivatives” (Molecules, 2014) are described below.

The subject of this data set is Hydractinia echinata. Put plainly: Hydractinia echinata test system (HeTS): reduction of Cs+-induced metamorphosis of larvae. It counts as in vivo. The following applies: for EC50: Hydractinia echinata. Here is the method: The average (C) concentrations of these values were calculated too. The MRC50 value calculations (Chicu et al.) result from the graphical representation of the metamorphosis variation, M (%), (Y axis) function of the xenobiotic’s concentration (mol/L) (X axis), where the metamorphosis decreases with the rise of the xenobiotic’s concentration. Thus, the MRC50 value represents the xenobiotic’s concentration (mol/L) necessary for a 50% decrease of metamorphosis, with respect to control.
For each concentration of substance experiments were performed in triplicate and were repeated at least twice.
Colonies of H. echinata (Biologische Anstalt, Helgoland, Germany) were used to obtain eggs and larvae. The culture medium was artificial seawater (980 mosmol, pH 8.2, 18 °C). In laboratory an artificial metamorphosis can be synchronically started by the introduction of Cs^+ ions or by using seawater without Mg^2+ ions; it then lasts only 24 h. Under the action of external stimulus of Cs^+ ions or Cs^+ ions together with the tested compounds, one part of larvae further lives as such and another one is metamorphosized to the polyp form. The evaluation of the influence of the tested substance is very clear this way, the proposed method being based on this aspect.
H. echinata larvae were exposed to seawater containing Cs^+ and simultaneously one of the test substances for 3 h. The percentage of animals that underwent metamorphosis (development into polyps) was determined after 24 h. […] We chose a concentration of inducers which caused about […] to three quarters of the larvae to metamorphose in order to have conditions which are highly sensitive against an inhibitory influence. […] This concentration was termed MRC50 (for Metamorphosis Reduction Concentration) and is similar to the effective EC50 concentration that gives half maximal effective response.

Setting [1] is: MRC50 in mol/L = concentration for 50% decrease of metamorphosis vs control, larvae exposed 3 h with Cs+, read after 24 h, read-out: M: experimental Mlog(1/MRC50) (converted).
[2] abbreviates: parent dye, Table 2, read-out: F(1+2+...)e experimental toxicity log(1/MRC50) (converted).
Where [3] appears, read: MRC50 in mol/L = concentration for 50% decrease of metamorphosis vs control, larvae exposed 3 h with Cs+, read after 24 h.

Structures can show the parent of a compound that is named as a salt. Where two headings read alike, the source gives them in different places.

`O=C(Nc1ccc(N=Nc2ccc(O)c(C(=O)O)c2)cc1)c1ccc(N=Nc2ccc(O)c(C(=O)O)c2)cc1` [Compound 106, 5-[2-(4-{4-[2-(3-Carboxy-4-hydroxyphenyl)diazen-1-yl]benzamido}-phenyl)diazen-1-yl]-2-hydroxybenzoic acid]: the EC50 runs as follows: under setting [1], 363 µM; under setting [2], 363 µM. As for `Cc1cc(-c2ccc(/N=N/c3c(S(=O)(=O)O)cc4cc(S(=O)(=O)O)cc(N)c4c3O)c(C)c2)ccc1/N=N/c1c(S(=O)(=O)O)cc2cc(S(=O)(=O)O)cc(N)c2c1O` [Compound 90, Trypanblue (Direct Blue 14)], under setting [1], the EC50 is 81.3 µM. Consider `Cc1cccc(N=Nc2ccc(N=Nc3c(O)ccc4ccccc34)cc2C)c1` [Compound 64, Solvent Red 25 (Sudan Red B)], for which, under setting [3], the “M: experimental Mlog(1/MRC50)” value is listed as 3.42. On the same count and under the same terms, the value for `O=S(=O)([O-])c1ccc(N=Nc2ccc(N=Nc3c(O)ccc4ccccc34)c(S(=O)(=O)[O-])c2)cc1.[Na+].[Na+]` [Compound 68, Acid Red 66 (Biebrischer Scharlach)] was 3.95.

For the compound `COc1ccc(N=Nc2ccccc2)cc1` [Compound 1, (4-Methoxyphenyl) (phenyl)diazene], the EC50 reads like this: under setting [1], 6.31 µM; under setting [2], 6.31 µM. In the case of `O=S(=O)(O)c1cc(S(=O)(=O)O)c2c(/N=N/c3ccccc3)c(O)ccc2c1` [Compound 39, Acid Orange 10 (Orange G)], the EC50 under setting [1] was 457 µM. In the case of `Nc1cc(S(=O)(=O)O)cc2cc(S(=O)(=O)O)c(N=Nc3ccc(NC(=O)c4ccc(N=Nc5ccc(O)c(C(=O)Nc6ccccc6)c5)cc4)cc3)c(O)c12` [Compound 122, 5-Amino-4-hydroxy-3-{2-[4-(4-{2-[4-hydroxy-3-(phenyl-carbamoyl)phenyl]-diazen-1-yl}-benzamido)phenyl]-diazen-1-yl}-naphthalene-2,7-disulfonic acid], the EC50 under setting [1] is 31.6 µM. On to `Nc1ccc(O)cc1O` [2,4-DHA, 2,4-dihydroxyaniline], for which, where the note is “product of enzymatic reduction/hydrolysis of the dye, read-out: F(1), F(2),... individual log(1/MRC50) toxicity value (converted)”, the EC50 was 0.55 µM. Take `CN(C)c1ccc(N=Nc2ccc(S(=O)(=O)[O-])cc2)cc1.[Na+]` [Compound 14, Methyl Orange (Orange III)]: under setting [3], the “M: experimental Mlog(1/MRC50)” value was 3.74. Where the note is “parent dye, Table 2”, the “F(1+2+...)e experimental toxicity log(1/MRC50)” value is listed as 3.74.

In the case of `O=C(O)c1cc(N=Nc2ccc(C=Cc3ccc(N=Nc4ccc(O)cc4C(=O)O)cc3S(=O)(=O)O)c(S(=O)(=O)O)c2)ccc1O` [Compound 98, 2-{2-[4-(2-{4-[2-(3-Carboxy-4-hydroxy-phenyl)diazen-1-yl]-2-sulfophenyl}ethenyl)-3-sulfophenyl]diazen-1-yl}-5-hydroxybenzoic acid], the EC50 under setting [1] was 407 µM. Still for that read-out and setting: for `O=C(O)c1ccc(N=Nc2c(O)ccc3ccccc23)cc1` [Compound 23, 4-[2-(2-Hydroxynaphthalen-1-yl)diazen-1-yl]benzoic acid] the value was 245 µM; for `O=C(Nc1ccc(N=Nc2c(O)ccc3ccccc23)cc1)c1ccc(N=Nc2ccc(O)c(C(=O)Nc3ccccc3)c2)cc1` [Compound 128, 2-Hydroxy-5-{2-[4-({4-[2-(2-hydroxynaphthalen-1-yl)diazen-1-yl]-phenyl}carbamoyl)-phenyl]diazen-1-yl}-N-phenylbenzamide], 53.7 µM. Consider `Nc1ccc(C(=O)O)c(O)c1` [Ac p-AmS, p-aminosalicylic acid], for which the EC50 (read-out: F(1), F(2),... individual log(1/MRC50) toxicity value (converted)) was 1070 µM. With `O=C(O)c1ccc(N=Nc2ccc(O)cc2)cc1` [Compound 7, 4-[2-(4-Hydroxyphenyl)diazen-1-yl]benzoic acid], the EC50 was 479 µM under setting [1] and 479 µM under setting [2]. On to `O=C(Nc1ccc(N=Nc2c(S(=O)(=O)O)cc3cc(NC(=O)c4ccccc4)ccc3c2O)cc1)c1ccc(N=Nc2ccc(O)c(C(=O)O)c2)cc1` [Compound 119, 5-{2-[4-({4-[2-(6-Benzamido-1-hydroxy-3-sulfonaphthalen-2-yl)diazen-1-yl]-phenyl}carbamoyl)phenyl]diazen-1-yl}-2-hydroxybenzoic acid], for which, under setting [1], the EC50 was 22.4 µM. Turning to `O=S(=O)([O-])c1cccc(N=Nc2ccc(Nc3ccccc3)cc2)c1.[Na+]` [Compound 12, Metanil Yellow (sodium salt)], the “M: experimental Mlog(1/MRC50)” value under setting [3] was 4.17.

As for Fast Red B Salt [Compound 137], the “M: experimental Mlog(1/MRC50)” value under setting [3] is 5.25.

Take `CC1(C)Nc2cccc3c(N=Nc4ccc(N=Nc5ccccc5)c5ccccc45)ccc(c23)N1` [Compound 80, Sudan Black B (Solvent Black 3)]: the “M: experimental Mlog(1/MRC50)” value under setting [3] is given as 4.20. Turning to `Nc1ccc2c(O)c(N=Nc3ccc(NC(=O)c4ccc(N=Nc5ccc(O)c(C(=O)O)c5)cc4)cc3)c(S(=O)(=O)O)cc2c1` [Compound 107, 5-{2-[4-({4-[2-(6-Amino-1-hydroxy-3-sulfonaphthalen-2-yl)diazen-1-yl]-phenyl}carbamoyl)-phenyl]diazen-1-yl}-2-hydroxybenzoic acid], the EC50 under setting [1] is 219 µM. For `COc1cc(NC(=O)c2ccccc2)c(OC)cc1[N+]#N` [Compound 135, Fast Blue RR Salt], the “M: experimental Mlog(1/MRC50)” value under setting [3] is given as 4.09. Regarding `Nc1ccc2cc(S(=O)(=O)O)c(N=Nc3ccc(NC(=O)c4ccc(N=Nc5ccc(O)c(C(=O)O)c5)cc4)cc3)c(O)c2c1` [Compound 108, 5-{2-[4-({4-[2-(7-Amino-1-hydroxy-3-sulfonaphthalen-2-yl)diazen-1-yl]-phenyl}carbamoyl)-phenyl]diazen-1-yl}-2-hydroxybenzoic acid], the EC50 under setting [1] was 214 µM.

Consider `O=C(O)c1ccc(/N=N/c2ccc(O)cc2O)cc1` [Compound 8, 4-[(E)-2-(2,4-dihydroxy-phenyl)diazen-1-yl]benzoic acid], for which the EC50 is, setting by setting: under setting [1], 490 µM; under setting [2], 490 µM. As for `O=S(=O)([O-])c1cc(Nc2nc(Nc3ccccc3)nc(N(CCO)CCO)n2)ccc1/C=C/c1ccc(Nc2nc(Nc3ccccc3)nc(N(CCO)CCO)n2)cc1S(=O)(=O)[O-].[Na+].[Na+]` [Compound 103, Fluorescent Brightener 28], under setting [3], the “M: experimental Mlog(1/MRC50)” value was 3.81. For the compound `Nc1c(N=Nc2ccc(NC(=O)c3ccc(N=Nc4cc(S(=O)(=O)O)c5ccccc5c4N)cc3)cc2)cc(S(=O)(=O)O)c2ccccc12` [Compound 109, 4-Amino-3-[2-(4-{4-[2-(1-amino-4-sulfonaphthalen-2-yl)-diazen-1-yl]-benzamido}phenyl)-diazen-1-yl]-naphthalene-1-sulfonic acid], under setting [1], the EC50 was 166 µM.

With `C=C(O)c1cc([N+](=O)[O-])ccc1N=Nc1c(N)ccc2c(O)c(N=Nc3ccc(NC(=O)c4ccc(N=Nc5ccc(O)c(C(=O)O)c5)cc4)cc3)c(S(=O)(=O)O)cc12` [Compound 115, 5-{2-[4-({4-[2-(6-Amino-1-hydroxy-5-{2-[2-(1-hydroxy-ethenyl)-4-nitro-phenyl]diazen-1-yl}-3-sulfonaphthalen-2-yl)diazen-1-yl]phenyl}-carbamoyl)phenyl]-diazen-1-yl}-2-hydroxybenzoic acid], under setting [1], the EC50 was 138 µM.

As to `O=C(Nc1ccc2c(O)c(N=Nc3ccccc3)c(S(=O)(=O)[O-])cc2c1)Nc1ccc2c(O)c(N=Nc3ccccc3)c(S(=O)(=O)[O-])cc2c1.[Na+].[Na+]` [Compound 129, Direct Brilliant Orange], the “M: experimental Mlog(1/MRC50)” value under setting [3] is 3.65.

For the compound `Nc1c(N=Nc2ccc(C=Cc3ccc(N=Nc4cc(S(=O)(=O)O)c5ccccc5c4N)cc3S(=O)(=O)O)c(S(=O)(=O)O)c2)cc(S(=O)(=O)O)c2ccccc12` [Compound 102, 4-Amino-3-{2-[4-(2-{4-[2-(1-amino-4-sulfonaphthalen-2-yl)diazen-1-yl]-2-sulfophenyl}ethenyl)-3-sulfophenyl]diazen-1-yl}naphthalene-1-sulfonic acid], the EC50 under setting [1] was 182 µM.

As for `Nc1c(N=Nc2ccc(C(=O)O)cc2)ccc2ccccc12` [Compound 26, 4-[2-(1-Aminonaphthalen-2-yl)diazen-1-yl]benzoic acid], the EC50 under setting [1] is 18.6 µM.

In the case of `O=C([O-])C1=NN(c2ccc(S(=O)(=O)[O-])cc2)C(=O)C1N=Nc1ccc(S(=O)(=O)[O-])cc1.[Na+].[Na+].[Na+]` (stereo not drawn) [Compound 55, Acid Yellow 23 (Tartrazine, Food Yellow 4)], under “even at a concentration of 0.11 mol/L”, the toxicity entry is given as “not toxic at all”. In addition, where the note is “same column as M”, the “M: experimental toxicity (class word)” value is recorded as “NOTE”. On to Bordo Direct AN [Compound 81], for which, under setting [3], the “M: experimental Mlog(1/MRC50)” value was determined as 3.86.

On to `O=[N+]([O-])c1ccc2c(N=Nc3ccc4ccccc4c3O)c(O)cc(S(=O)(=O)[O-])c2c1.[Na+]` [Compound 58, Eriochrom Black T], for which, under setting [3], the “M: experimental Mlog(1/MRC50)” value stood at 4.13. Turning to `O=C(Nc1ccc(/N=N/c2ccc(C(=O)O)c(O)c2)cc1)c1ccc(/N=N/c2ccccc2O)cc1` [Compound 104, 2-Hydroxy-4-[(E)-2-(4-{4-[(E)-2-(2-hydroxy-phenyl)diazen-1-yl]-benzamido}phenyl)-diazen-1-yl]benzoic acid], the EC50 under setting [1] is 30.2 µM and the EC50 under setting [2] was 30.2 µM.
